Measured values taken from EPA's ToxValDB 9.5 (doi:10.2903/j.efsa.2009.336r).

Tests used:
Apis mellifera = details: acute; duration: 48 hours; oral; unspecified; mortality
Avena sativa = details: not reported; no effects
Bibionidae = details: chronic/long-term; duration: 28 days; other
Canidae = details: chronic; duration: 52 weeks; oral; Dog Other; organ weight
Colinus virginianus = details: acute, oral, mortality
Daphnia magna = details: chronic/long-term; duration: 21 days; reproduction
Lepomis macrochirus = details: acute; duration: 96 hours; mortality
Oncorhynchus mykiss = details: chronic/long-term; duration: 95 days
Tagia sp. = details: acute; duration: 14 days; mortality

Question: Which LD50 (Anas platyrhynchos; acute, oral, unspecified, mortality) does the source give for `CC(COc1ccc(Oc2ccccc2)cc1)Oc1ccccn1` (centres undefined) [Pyriproxyfen] here?
Answer: Its LD50 is > 1910 mg/kg.

Question: And the NOEC (Anas platyrhynchos; reproductive)?
Answer: The NOEC was 70.2 mg/kg-day.

Question: And the LD50 (Apis mellifera)?
Answer: The LD50 was > 74 µg/piece.

Question: What about the LEL (Avena sativa) of the same molecule?
Answer: The LEL was 8000 g/ha.

Question: What about the NOEC (Bibionidae) of the same molecule?
Answer: Its NOEC is 0.01 mg/L.

Question: And the NOAEL (Canidae)?
Answer: Its NOAEL is 10 mg/kg-day.

Question: What about the LC50 (Colinus virginianus; diet) of the same molecule?
Answer: The LC50 was > 863 mg/kg-day.

Question: What about the LD50 (Colinus virginianus) of the same molecule?
Answer: Its LD50 is > 1910 mg/kg.

Question: What about the NOEC (Daphnia magna) of the same molecule?
Answer: Its NOEC is 1.5e-05 mg/L.

Question: And the LC50 (Lepomis macrochirus)?
Answer: Its LC50 is > 0.27 µg/mL.

Question: And the NOEC (Oncorhynchus mykiss)?
Answer: The NOEC was 0.0043 mg/L.

Question: And the LD50 (Rattus norvegicus; acute, oral, mortality)?
Answer: Its LD50 is > 5000 mg/kg.

Question: And the NOAEL (Rattus norvegicus; reproduction developmental, organ weight)?
Answer: The NOAEL was 13.3 mg/kg-day.

Question: And the LC50 (Tagia sp.)?
Answer: The LC50 was > 1000 mg/kg.
